# Results reported in patent US20260263651A1, “WOUND DRESSING” (UNIVERSITY OF SUNDERLAND, priority 2023, published 2026).
# Tests used:
# Escherichia coli = experiment: Microbiological evaluation of standardised bacterial suspensions, modified wound dressing with absorbed substrate on agar; type: cell-based; design: key to Observable colour change: − indicates no colour change; +− indicates relatively discernible blue colour change; + indicates a moderately strong blue colour change; ++ indicates a strong blue colour change
# Protocol: (§1) ACTIVHEAL® simply A (10×20 cm) non-adhesive foam samples were provided by Advanced Medical Solutions Ltd. The wound dressings were cut into ~5-10×5-10 mm squares, using an ethanol washed pair of scissors. A maximum of 0.20 g of the material was added into 10 mL DI water, and the pH was adjusted to ~3 by the addition of 0.1 M aq. HCl solution. The solution was stirred for 10 mins at room temperature, followed by the addition of 0.33 g EDC •HCl (1.7 mmol) and the pH was maintained at ~3 by the addition of 0.1 M aq. HCl solution. The solution was stirred at room temperature for 10 mins followed by the addition of 0.88 g compound 8 which was dissolved in DMSO or DMF. The mixture was stirred at room temperature for 48 h. The wound dressings were filtered and were washed with ethanol. To ensure the full removal of any non-coupled amide (8), the foam samples were resuspended in ethanol, stirred for 10 mins and filtered, and this process was repeated until the amide (8) was not detectable from the filtrate (this could be maintained by TLC or HPLC evaluation). The samples were dried in a vacuum oven for 3-4 h.
# (§2) The aqueous solution of 3a or 3b was prepared by the following: the desired amount of the enzymatic substrate (3.0 mg for 300 mg/L, 6.0 mg for 600 mg/L, 9.0 mg for 900 mg/L, 15.0 mg for 1500 mg/L, and 30.0 mg for 3000 mg/L) was weighed out on a 4 decimal place balance within ±0.3 mg error limit into a 10 mL volumetric flask and was adjusted to 10.0 mL with DI water. The solutions were absorbed into the foam samples and dried in a vacuum oven at 40° C. overnight.
# (§3) Bacterial strains were routinely cultured from working stocks in Tryptic Soy Broth (TSB) and incubated at 37° C. overnight with shaking at 150 RPM. Overnight cultures were centrifuged at 3000×g for 5 minutes, the supernatant discarded, and the pellet resuspended in 10 mL phosphate buffered saline (PBS). Bacterial inoculums were standardised by optical density at 600 nm on an Amersham Biosciences Ultrospec 10 spectrophotometer (Amersham Biosciences, Amersham, UK) to contain between 1 and 3×10^8 CFU/mL.
# However, rapid evaluation of lower bacteria concentrations is essential for the desired clinical application. Three different solutions (300, 600 and 1500 mg/L) were prepared from the substrates 3a and 3b in micro filtered DI water as a solvent. The solutions were absorbed into the wound dressing samples, which were dried overnight under vacuum at 40° C.
# (§4) Two Gram negative strains (Escherichia coli—EC and Pseudomonas aeruginosa—PSA) and a Gram-positive bacterium (Staphylococcus aureus—SA) were evaluated. The bacteria were incubated overnight, centrifuged at 3000×g for 5 mins, the supernatant was discarded, and the residue pellets were resuspended in 10 mL PBS. The inoculums were standardised by measuring the optical density at 600 nm to assure a 1-3×10^8 CFU/mL. The standardised solutions were further diluted to prepare 1-3×10^6 and 1-3×10^4 CFU/mL suspension. 1×10^6 CFU would be an ideal breakpoint for a positive result, as this concentration coincides well with a level of colonisation that would likely go on to produce an infection.
# (§5) 100 μL bacterial suspensions were smeared over agar plates. Wound dressing samples were added to the top of the agar and were rolled over a few times (to ensure a full coverage and to ease the visibility of the colour change). The plates were incubated at 37° C., and the results were recorded after 24 h, after 48 h, after 72 h. The results are shown in Table 3-5; − indicates no colour change, +− indicates relatively discernible blue colour change, + indicates a moderately strong blue colour change and ++ indicates a strong blue colour change.
# Staphylococcus aureus = experiment: as above; type: cell-based; design: key to Observable colour change: − indicates no colour change; +− indicates relatively discernible blue colour change; + indicates a moderately strong blue colour change; ++ indicates a strong blue colour change; details: for colour change: SA
# Protocol: as §1, §2, §3
# However, rapid evaluation of lower bacteria concentrations is essential for the desired clinical application. […] The solutions were absorbed into the wound dressing samples, which were dried overnight under vacuum at 40° C.
# as §4, §5
structure (smiles),measurement,setting,value
"CC(C)C[C@H](N)C(=O)Nc1ccc(N(C)C)cc1.Cl [3a, (2S)-2-amino-N-[4-(dimethylamino)phenyl]-4-methyl-pentanamide hydrochloride]",Observable colour change,"Escherichia coli; EC 10^4, substrate 300 mg/L, 24 h at 37° C.",−
same,Observable colour change,"Escherichia coli; EC 10^4, substrate 300 mg/L, 48 h at 37° C.",−
same,Observable colour change,"Escherichia coli; EC 10^4, substrate 300 mg/L, 72 h at 37° C.",−
same,Observable colour change,"Escherichia coli; EC 10^4, substrate 900 mg/L, 24 h at 37° C.",−
same,Observable colour change,"Escherichia coli; EC 10^4, substrate 900 mg/L, 48 h at 37° C.",−
same,Observable colour change,"Escherichia coli; EC 10^4, substrate 900 mg/L, 72 h at 37° C.",+
same,Observable colour change,"Escherichia coli; EC 10^4, substrate 1500 mg/L, 24 h at 37° C.",−
same,Observable colour change,"Escherichia coli; EC 10^4, substrate 1500 mg/L, 48 h at 37° C.",+−
same,Observable colour change,"Escherichia coli; EC 10^4, substrate 1500 mg/L, 72 h at 37° C.",+
same,Observable colour change,"Escherichia coli; EC 10^6, substrate 300 mg/L, 24 h at 37° C.",−
same,Observable colour change,"Escherichia coli; EC 10^6, substrate 300 mg/L, 48 h at 37° C.",+−
same,Observable colour change,"Escherichia coli; EC 10^6, substrate 300 mg/L, 72 h at 37° C.",+
same,Observable colour change,"Escherichia coli; EC 10^6, substrate 900 mg/L, 24 h at 37° C.",−
same,Observable colour change,"Escherichia coli; EC 10^6, substrate 900 mg/L, 48 h at 37° C.",+−
same,Observable colour change,"Escherichia coli; EC 10^6, substrate 900 mg/L, 72 h at 37° C.",+
same,Observable colour change,"Escherichia coli; EC 10^6, substrate 1500 mg/L, 24 h at 37° C.",+−
same,Observable colour change,"Escherichia coli; EC 10^6, substrate 1500 mg/L, 48 h at 37° C.",+
same,Observable colour change,"Escherichia coli; EC 10^6, substrate 1500 mg/L, 72 h at 37° C.",++
same,colour change,"Escherichia coli; EC 10^8, 10^6 or 10^4 CFU, after 72 h, every tested substrate concentration",moderate or strong blue colour changes
same,Observable colour change,"Escherichia coli; EC 10^8, substrate 300 mg/L, 24 h at 37° C.",+−
same,Observable colour change,"Escherichia coli; EC 10^8, substrate 300 mg/L, 48 h at 37° C.",+
same,Observable colour change,"Escherichia coli; EC 10^8, substrate 300 mg/L, 72 h at 37° C.",++
same,Observable colour change,"Escherichia coli; EC 10^8, substrate 900 mg/L, 24 h at 37° C.",+−
same,Observable colour change,"Escherichia coli; EC 10^8, substrate 900 mg/L, 48 h at 37° C.",+
same,Observable colour change,"Escherichia coli; EC 10^8, substrate 900 mg/L, 72 h at 37° C.",++
same,Observable colour change,"Escherichia coli; EC 10^8, substrate 1500 mg/L, 24 h at 37° C.",+−
same,Observable colour change,"Escherichia coli; EC 10^8, substrate 1500 mg/L, 48 h at 37° C.",+
same,Observable colour change,"Escherichia coli; EC 10^8, substrate 1500 mg/L, 72 h at 37° C.",++
same,colour change,"Escherichia coli; EC, substrate 900 or 1500 mg/L, printed in the 48 h paragraph",moderate or strong colour change
same,Observable colour change,"Staphylococcus aureus; SA 10^4, substrate 300 mg/L, 24 h at 37° C.",−
same,Observable colour change,"Staphylococcus aureus; SA 10^4, substrate 300 mg/L, 48 h at 37° C.",−
same,Observable colour change,"Staphylococcus aureus; SA 10^4, substrate 300 mg/L, 72 h at 37° C.",−
same,Observable colour change,"Staphylococcus aureus; SA 10^4, substrate 900 mg/L, 24 h at 37° C.",−
same,Observable colour change,"Staphylococcus aureus; SA 10^4, substrate 900 mg/L, 48 h at 37° C.",−
same,Observable colour change,"Staphylococcus aureus; SA 10^4, substrate 900 mg/L, 72 h at 37° C.",−
same,Observable colour change,"Staphylococcus aureus; SA 10^4, substrate 1500 mg/L, 24 h at 37° C.",−
same,Observable colour change,"Staphylococcus aureus; SA 10^4, substrate 1500 mg/L, 48 h at 37° C.",−
same,Observable colour change,"Staphylococcus aureus; SA 10^4, substrate 1500 mg/L, 72 h at 37° C.",−
same,Observable colour change,"Staphylococcus aureus; SA 10^6, substrate 300 mg/L, 24 h at 37° C.",−
same,Observable colour change,"Staphylococcus aureus; SA 10^6, substrate 300 mg/L, 48 h at 37° C.",−
same,Observable colour change,"Staphylococcus aureus; SA 10^6, substrate 300 mg/L, 72 h at 37° C.",−
same,Observable colour change,"Staphylococcus aureus; SA 10^6, substrate 900 mg/L, 24 h at 37° C.",−
same,Observable colour change,"Staphylococcus aureus; SA 10^6, substrate 900 mg/L, 48 h at 37° C.",−
same,Observable colour change,"Staphylococcus aureus; SA 10^6, substrate 900 mg/L, 72 h at 37° C.",−
same,Observable colour change,"Staphylococcus aureus; SA 10^6, substrate 1500 mg/L, 24 h at 37° C.",−
same,Observable colour change,"Staphylococcus aureus; SA 10^6, substrate 1500 mg/L, 48 h at 37° C.",−
same,Observable colour change,"Staphylococcus aureus; SA 10^6, substrate 1500 mg/L, 72 h at 37° C.",−
same,Observable colour change,"Staphylococcus aureus; SA 10^8, substrate 300 mg/L, 24 h at 37° C.",−
same,Observable colour change,"Staphylococcus aureus; SA 10^8, substrate 300 mg/L, 48 h at 37° C.",−
same,Observable colour change,"Staphylococcus aureus; SA 10^8, substrate 300 mg/L, 72 h at 37° C.",−
same,Observable colour change,"Staphylococcus aureus; SA 10^8, substrate 900 mg/L, 24 h at 37° C.",−
same,Observable colour change,"Staphylococcus aureus; SA 10^8, substrate 900 mg/L, 48 h at 37° C.",−
same,Observable colour change,"Staphylococcus aureus; SA 10^8, substrate 900 mg/L, 72 h at 37° C.",−
same,Observable colour change,"Staphylococcus aureus; SA 10^8, substrate 1500 mg/L, 24 h at 37° C.",−
same,Observable colour change,"Staphylococcus aureus; SA 10^8, substrate 1500 mg/L, 48 h at 37° C.",+−
same,Observable colour change,"Staphylococcus aureus; SA 10^8, substrate 1500 mg/L, 72 h at 37° C.",+−
same,colour change,"Staphylococcus aureus; 48 h paragraph, substrate 1500 mg/L","weak, but discernible colour change"
same,colour change,"Staphylococcus aureus; after 72 h, substrate 1500 mg/L","weak, hardly visible colour change"
